In ChEMBL document CHEMBL1201862, “PubChem BioAssay data set” (2004):
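Protocol summary: plate cells (96-well), add compound at 5 concentrations, incubate 48 h, interpolate endpoints linearly. At the GI50, growth is halved.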 Active and inactive are the calls of the source. No stated cut-off is given here; in the data, active = GI50 up to about 1.1 µM and inactive = higher.

How the values were obtained:
Assay in all cases: DTP human tumour cell line panel, 48 h
MOLT-4 = test system: MOLT-4
786-0 = test system: 786-0
OVCAR-3 = test system: OVCAR-3
SK-OV-3 = test system: SK-OV-3
NCI/ADR-RES = test system: NCI/ADR-RES
MDA-N = test system: MDA-N
HCT-116 = test system: HCT-116
SK-MEL-2 = test system: SK-MEL-2
LXFL 529 = test system: LXFL 529
SK-MEL-28 = test system: SK-MEL-28
SF-539 = test system: SF-539
M19-MEL = test system: M19-MEL
CCRF-CEM = test system: CCRF-CEM
ACHN = test system: ACHN
RPMI-8226 = test system: RPMI-8226
UACC-62 = test system: UACC-62
KM12 = test system: KM12
MDA-MB-231 = test system: MDA-MB-231
T47D = test system: T47D
HCC 2998 = test system: HCC 2998
K562 = test system: K562
UACC-257 = test system: UACC-257
A549 = test system: A549
NCI-H226 = test system: NCI-H226
TK-10 = test system: TK-10
BT-549 = test system: BT-549
DLD-1 = test system: DLD-1
MDA-MB-435 = test system: MDA-MB-435
DMS-273 = test system: DMS-273
SR = test system: SR
HL-60 = test system: HL-60
HT-29 = test system: HT-29
LOX IMVI = test system: LOX IMVI
OVCAR-4 = test system: OVCAR-4
SNB-19 = test system: SNB-19
HOP-62 = test system: HOP-62
XF498 = test system: XF498
SN12C = test system: SN12C
RXF 393 = test system: RXF 393
U-251 = test system: U-251
HOP-18 = test system: HOP-18
OVCAR-8 = test system: OVCAR-8
NCI-H23 = test system: NCI-H23
M14 = test system: M14
A498 = test system: A498
EKVX = test system: EKVX
HCT-15 = test system: HCT-15
MCF7 = test system: MCF7
CAKI-1 = test system: CAKI-1
NCI-H460 = test system: NCI-H460
SF-268 = test system: SF-268
Malme-3M = test system: Malme-3M
DMS-114 = test system: DMS-114
Hs-578T = test system: Hs-578T
DU-145 = test system: DU-145
SNB-75 = test system: SNB-75
SF-295 = test system: SF-295
UO-31 = test system: UO-31
SK-MEL-5 = test system: SK-MEL-5
PC-3 = test system: PC-3
HOP-92 = test system: HOP-92
SW-620 = test system: SW-620
NCI-H522 = test system: NCI-H522
SNB-78 = test system: SNB-78
IGROV-1 = test system: IGROV-1
OVCAR-5 = test system: OVCAR-5
COLO 205 = test system: COLO 205

## CCCc1cc(-c2ccc(-c3cc(CCC)c(C=O)[nH]3)s2)[nH]c1C=O
MOLT-4
  GI50: 2.9 µM (inactive)
786-0
  GI50: 14.4 µM (inactive)
OVCAR-3
  GI50: 12.4 µM (inactive)
SK-OV-3
  GI50: > 56.9 µM (inactive)
NCI/ADR-RES
  GI50: 18.4 µM (inactive)
MDA-N
  GI50: 4.34 µM (inactive)
HCT-116
  GI50: 21.8 µM (inactive)
SK-MEL-2
  GI50: 22 µM (inactive)
LXFL 529
  GI50: 76.4 µM (inactive)
SK-MEL-28
  GI50: 63 µM (inactive)
SF-539
  GI50: > 100 µM (inactive)
M19-MEL
  GI50: 4.53 µM (inactive)
CCRF-CEM
  GI50: 2.44 µM (inactive)
ACHN
  GI50: > 26.7 µM (inactive)
RPMI-8226
  GI50: > 100 µM (inactive)
UACC-62
  GI50: > 32.6 µM (inactive)
KM12
  GI50: > 27.9 µM (inactive)
MDA-MB-231
  GI50: > 100 µM (inactive)
T47D
  GI50: 6.05 µM (inactive)
HCC 2998
  GI50: 5.56 µM (inactive)
K562
  GI50: 5.48 µM (inactive)
UACC-257
  GI50: > 100 µM (inactive)
A549
  GI50: 4.42 µM (inactive)
NCI-H226
  GI50: > 100 µM (inactive)
TK-10
  GI50: > 100 µM (inactive)
BT-549
  GI50: 25.9 µM (inactive)
DLD-1
  GI50: 44.5 µM (inactive)
MDA-MB-435
  GI50: 15.5 µM (inactive)
DMS-273
  GI50: 86.1 µM (inactive)
SR
  GI50: 2.14 µM (inactive)
HL-60
  GI50: 4.3 µM (inactive)
HT-29
  GI50: 2.18 µM (inactive)
LOX IMVI
  GI50: 5.89 µM (inactive)
OVCAR-4
  GI50: 47.4 µM (inactive)
SNB-19
  GI50: > 100 µM (inactive)
HOP-62
  GI50: > 100 µM (inactive)
XF498
  GI50: > 100 µM (inactive)
SN12C
  GI50: > 69.2 µM (inactive)
RXF 393
  GI50: 30.1 µM (inactive)
U-251
  GI50: 61.1 µM (inactive)
HOP-18
  GI50: 53 µM (inactive)
OVCAR-8
  GI50: > 49.1 µM (inactive)
NCI-H23
  GI50: > 37.1 µM (inactive)
M14
  GI50: 7.08 µM (inactive)
A498
  GI50: > 69.5 µM (inactive)
EKVX
  GI50: > 100 µM (inactive)
HCT-15
  GI50: 8.61 µM
MCF7
  GI50: 64.3 µM (inactive)
CAKI-1
  GI50: > 100 µM (inactive)
NCI-H460
  GI50: 5.2 µM (inactive)
SF-268
  GI50: > 84.7 µM (inactive)
Malme-3M
  GI50: 21.2 µM (inactive)
DMS-114
  GI50: 8.77 µM (inactive)
Hs-578T
  GI50: 41.2 µM (inactive)
DU-145
  GI50: > 100 µM (inactive)
SNB-75
  GI50: > 100 µM (inactive)
SF-295
  GI50: 11.9 µM (inactive)
UO-31
  GI50: 22.6 µM (inactive)
SK-MEL-5
  GI50: 29.4 µM (inactive)
PC-3
  GI50: 26.5 µM (inactive)
HOP-92
  GI50: 27.5 µM (inactive)
SW-620
  GI50: > 55.8 µM (inactive)
NCI-H522
  GI50: 5.45 µM (inactive)
SNB-78
  GI50: > 100 µM (inactive)
IGROV-1
  GI50: > 100 µM (inactive)
OVCAR-5
  GI50: 15.1 µM (inactive)
COLO 205
  GI50: 4.83 µM (inactive)
